# Measurements published in PubChem BioAssay (NCI).
#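 Exposure lasted 48 hours, with cells grown in 96-well plates and compounds tested at five concentrations. At the TGI there is no net growth.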
# Tests used:
# Experiment in all cases: growth of human tumour cells (NCI), 48 h
# CCRF-CEM leukemia = tested on: CCRF-CEM leukemia
# SK-MEL-2 melanoma = tested on: SK-MEL-2 melanoma
# MDA-MB-435 = tested on: MDA-MB-435
# UO-31 renal = tested on: UO-31 renal
# PC-3 prostate = tested on: PC-3 prostate
# OVCAR-4 ovarian = tested on: OVCAR-4 ovarian
# RXF 393 renal = tested on: RXF 393 renal
# HT29 colon = tested on: HT29 colon
# HOP-62 NSCLC = tested on: HOP-62 NSCLC
# M14 melanoma = tested on: M14 melanoma
# CAKI-1 renal = tested on: CAKI-1 renal
# EKVX NSCLC = tested on: EKVX NSCLC
# TK-10 renal = tested on: TK-10 renal
# BT-549 breast = tested on: BT-549 breast
# NCI-H23 lung = tested on: NCI-H23 lung
# SNB-19 CNS = tested on: SNB-19 CNS
# SK-MEL-5 melanoma = tested on: SK-MEL-5 melanoma
# MDA-MB-231 breast = tested on: MDA-MB-231 breast
# KM12 colon = tested on: KM12 colon
# IGROV1 ovarian = tested on: IGROV1 ovarian
# HCC-2998 colon = tested on: HCC-2998 colon
# DU-145 prostate = tested on: DU-145 prostate
# COLO 205 colon = tested on: COLO 205 colon
# MDA-N = tested on: MDA-N
# K-562 leukemia = tested on: K-562 leukemia
# A498 renal = tested on: A498 renal
# HOP-92 NSCLC = tested on: HOP-92 NSCLC
# HCT-116 colon = tested on: HCT-116 colon
# ACHN renal = tested on: ACHN renal
# HL-60(TB) leukemia = tested on: HL-60(TB) leukemia
# SW-620 colon = tested on: SW-620 colon
# NCI-H522 lung = tested on: NCI-H522 lung
# UACC-257 melanoma = tested on: UACC-257 melanoma
# SF-295 CNS = tested on: SF-295 CNS
# SK-OV-3 ovarian = tested on: SK-OV-3 ovarian
# OVCAR-5 ovarian = tested on: OVCAR-5 ovarian
# MCF7 breast = tested on: MCF7 breast
# T-47D breast = tested on: T-47D breast
# SN12C renal = tested on: SN12C renal
# OVCAR-8 ovarian = tested on: OVCAR-8 ovarian
# SF-539 CNS = tested on: SF-539 CNS
# SR leukemia = tested on: SR leukemia
# NCI-H226 lung = tested on: NCI-H226 lung
# 786-0 renal = tested on: 786-0 renal
# NCI/ADR-RES ovarian = tested on: NCI/ADR-RES ovarian
# LOX IMVI melanoma = tested on: LOX IMVI melanoma
# HS 578T breast = tested on: HS 578T breast
# OVCAR-3 ovarian = tested on: OVCAR-3 ovarian
# SNB-75 CNS = tested on: SNB-75 CNS
# U251 CNS = tested on: U251 CNS
# SK-MEL-28 melanoma = tested on: SK-MEL-28 melanoma
# NCI-H460 lung = tested on: NCI-H460 lung
# HCT-15 colon = tested on: HCT-15 colon
# SF-268 CNS = tested on: SF-268 CNS
# MOLT-4 leukemia = tested on: MOLT-4 leukemia
# RPMI-8226 leukemia = tested on: RPMI-8226 leukemia
# A549 NSCLC = tested on: A549 NSCLC
structure (smiles),measurement,setting,value
N=c1ccc2c(c1)[nH]c1c3ccccc3[nH]c3cccc2c31,TGI,CCRF-CEM leukemia,> 100 µM
same,TGI,SK-MEL-2 melanoma,3.14 µM
same,TGI,MDA-MB-435,3.2 µM
same,TGI,UO-31 renal,3.14 µM
same,TGI,PC-3 prostate,2.97 µM
same,TGI,OVCAR-4 ovarian,3.23 µM
same,TGI,RXF 393 renal,3.09 µM
same,TGI,HT29 colon,2.47 µM
same,TGI,HOP-62 NSCLC,2.58 µM
same,TGI,M14 melanoma,3.65 µM
same,TGI,CAKI-1 renal,3.02 µM
same,TGI,EKVX NSCLC,3.1 µM
same,TGI,TK-10 renal,3.62 µM
same,TGI,BT-549 breast,13.1 µM
same,TGI,NCI-H23 lung,2.94 µM
same,TGI,SNB-19 CNS,3 µM
same,TGI,SK-MEL-5 melanoma,3.17 µM
same,TGI,MDA-MB-231 breast,2.69 µM
same,TGI,KM12 colon,2.6 µM
same,TGI,IGROV1 ovarian,2.67 µM
same,TGI,HCC-2998 colon,2.44 µM
same,TGI,DU-145 prostate,2.95 µM
same,TGI,COLO 205 colon,2.67 µM
same,TGI,MDA-N,2.76 µM
same,TGI,K-562 leukemia,> 100 µM
same,TGI,A498 renal,3.2 µM
same,TGI,HOP-92 NSCLC,3.22 µM
same,TGI,HCT-116 colon,2.8 µM
same,TGI,ACHN renal,2.74 µM
same,TGI,HL-60(TB) leukemia,> 100 µM
same,TGI,SW-620 colon,2.02 µM
same,TGI,NCI-H522 lung,3.06 µM
same,TGI,UACC-257 melanoma,3.52 µM
same,TGI,SF-295 CNS,2.61 µM
same,TGI,SK-OV-3 ovarian,3 µM
same,TGI,OVCAR-5 ovarian,3.16 µM
CCCCCCCCCCCCCCCCCCOCC(CO[P+](=O)O)OCCCCCCCCCCCCCCCCCC (stereo unspecified),TGI,MCF7 breast,> 50 µM
same,TGI,SK-MEL-2 melanoma,> 50 µM
same,TGI,T-47D breast,> 50 µM
same,TGI,MDA-MB-435,> 50 µM
same,TGI,PC-3 prostate,> 50 µM
same,TGI,SN12C renal,> 50 µM
same,TGI,OVCAR-4 ovarian,> 50 µM
same,TGI,RXF 393 renal,> 50 µM
same,TGI,OVCAR-8 ovarian,> 50 µM
same,TGI,HT29 colon,> 50 µM
same,TGI,SF-539 CNS,> 50 µM
same,TGI,SR leukemia,> 50 µM
same,TGI,M14 melanoma,> 50 µM
same,TGI,CAKI-1 renal,> 50 µM
same,TGI,EKVX NSCLC,> 50 µM
same,TGI,NCI-H226 lung,> 50 µM
same,TGI,TK-10 renal,> 50 µM
same,TGI,786-0 renal,> 50 µM
same,TGI,SNB-19 CNS,> 50 µM
same,TGI,NCI/ADR-RES ovarian,> 50 µM
same,TGI,LOX IMVI melanoma,> 50 µM
same,TGI,SK-MEL-5 melanoma,> 50 µM
same,TGI,MDA-MB-231 breast,> 50 µM
same,TGI,HS 578T breast,> 50 µM
same,TGI,KM12 colon,> 50 µM
same,TGI,IGROV1 ovarian,> 50 µM
same,TGI,HCC-2998 colon,> 50 µM
same,TGI,DU-145 prostate,> 50 µM
same,TGI,COLO 205 colon,> 50 µM
same,TGI,MDA-N,> 50 µM
same,TGI,K-562 leukemia,> 50 µM
same,TGI,OVCAR-3 ovarian,> 50 µM
same,TGI,SNB-75 CNS,> 50 µM
same,TGI,U251 CNS,> 50 µM
same,TGI,A498 renal,> 50 µM
same,TGI,SK-MEL-28 melanoma,> 50 µM
same,TGI,HOP-92 NSCLC,> 50 µM
same,TGI,NCI-H460 lung,> 50 µM
same,TGI,HCT-116 colon,> 50 µM
same,TGI,HL-60(TB) leukemia,> 50 µM
same,TGI,SW-620 colon,> 50 µM
same,TGI,NCI-H522 lung,> 50 µM
same,TGI,UACC-257 melanoma,> 50 µM
same,TGI,HCT-15 colon,> 50 µM
same,TGI,SF-268 CNS,> 50 µM
same,TGI,SK-OV-3 ovarian,> 50 µM
same,TGI,MOLT-4 leukemia,> 50 µM
same,TGI,RPMI-8226 leukemia,> 50 µM
same,TGI,OVCAR-5 ovarian,> 50 µM
same,TGI,A549 NSCLC,> 50 µM
